In PMC10065799, “High-throughput profiling of sequence recognition by tyrosine kinases and SH2 domains using bacterial peptide display” (eLife, 2023):

The sequences below were run against c-Src kinase domain (Homo sapiens, UniProt P12931) (assay: pTyr-Var library bacterial peptide display kinase screen (enrichment scores)). Settings: sheet "Src"; variant peptide versus its reference peptide in the pTyr-Var library screen.
Type: biochemical

Sequence | Screen
AVISVYDLVVV [PSEN1_Y256_A260V] | -0.2228
PANMVYSTVEI [SLAMF7_Y304_T302M] | 0.01938
EFHRLYEEFTR [PIK3R1_Y467_D464H_YF] | 0.07006
FEPWVYSLSFE [PRKDC_Y647_F649L_YF] | 0.05044
SEPDLYFDPRG [PKP1_Y160_C161Y_YF] | 1.044
FTDPFYDFEIE [ZC3H18_Y372_A368T_YF] | 0.548
VARAVYQAVLS [SMG1_Y549_H546R] | -1.809
AEFGLYRAMVR [VSX2_Y222_G223R_YF] | -2.091

Each sequence was assayed against T1, c-Abl kinase domain (Mus musculus, UniProt P00520) in the same assay as above. Settings: fig5-data2, sheet "Abl"; Screen for the variant/reference peptide pair, pTyr-Var library.
T1 sequence (P00520 242-493 limits assumed): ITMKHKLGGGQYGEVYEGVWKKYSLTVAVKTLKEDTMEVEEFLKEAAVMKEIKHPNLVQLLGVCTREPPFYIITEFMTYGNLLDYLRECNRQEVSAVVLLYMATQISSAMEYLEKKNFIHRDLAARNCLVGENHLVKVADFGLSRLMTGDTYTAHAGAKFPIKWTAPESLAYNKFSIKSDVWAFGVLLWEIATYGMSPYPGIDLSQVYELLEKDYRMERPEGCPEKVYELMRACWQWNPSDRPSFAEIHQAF
Type: biochemical

Screen | Sequence
0.5744 | IKRIDYEFVEM [ADA_Y84_A83D]
1.249 | ICFSDYVEVAD [PHACTR1_Y525_R521C]
-0.6696 | GFGGGYGGVLT [KRT19_Y65_A60G_YF]
0.006002 | IGVDSYSVCKR [RPS6KA3_Y433_G431D]

Sequence | Screen
FEPWVYSLSFE [PRKDC_Y647_F649L_YF] | -0.5163

Same assay, conditions: sheet "Abl"; effect of variant peptide relative to its reference peptide in pTyr-Var library screen (enrichment)

Screen | Sequence
-3.297 | KNNSIYVLANI [VNN1_Y134_V136L]
1.295 | LLSVAYKNVVR [YWHAZ_Y48_G53R]
-0.9059 | VIIVLYFSLWK [SLC6A2_Y249_V245I]

Sequence | Screen
FTDPFYDFEIE [ZC3H18_Y372_A368T_YF] | 2.472
AEFGLYRAMVR [VSX2_Y222_G223R_YF] | 2.423

What follows are sequences tested on Fer kinase domain in the same assay as above. Settings: sheet "Fer"; value of the variant peptide against its reference peptide in the pTyr-Var library screen with Fer.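 Further: log2 fold change in enrichment of variant over reference.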
Type: biochemical, mouse

Sequence | Screen
VDGSLYETHPQ [HK1_Y417_K418E] | 4.441
AVISVYDLVVV [PSEN1_Y256_A260V] | 0.009469
IKRIDYEFVEM [ADA_Y84_A83D] | -0.7273
EFHRLYEEFTR [PIK3R1_Y467_D464H_YF] | -0.6972
SEPDLYFDPRG [PKP1_Y160_C161Y_YF] | -1.5
RQQQDYWLKDV [ANPEP_Y600_I603K] | -2.803

Same assay, conditions: sheet "Fer"; variant peptide relative to its reference peptide, pTyr-Var library screen enrichment

Screen | Sequence
1.88 | KNNSIYVLANI [VNN1_Y134_V136L]
-0.1473 | SQINLYQDVML [ZNF806_Y33_A28S]
3.283 | SVVVLYEPPEV [TP53_Y220_P219L]

Sequence | Screen
PANMVYSTVEI [SLAMF7_Y304_T302M] | -0.2345
VARAVYQAVLS [SMG1_Y549_H546R] | -2.673

These sequences were tested on EPHB1 kinase domain in the same assay as above. Settings: sheet "EPHB1"; variant seq vs reference seq; bacterial peptide display enrichment.
Type: biochemical, human

Sequence | Screen (variant relative to reference peptide, measured in the pTyr-Var library screen)
SQINLYQDVML [ZNF806_Y33_A28S] | -0.1927
PANMVYSTVEI [SLAMF7_Y304_T302M] | 0.5023
LTFHMYADPNI [SOS1_Y618_F623I_YF] | 0.02693
SVVVLYEPPEV [TP53_Y220_P219L] | 3.168
FTDPFYDFEIE [ZC3H18_Y372_A368T_YF] | 0.9547
VARAVYQAVLS [SMG1_Y549_H546R] | -4.046

Same assay, conditions: sheet EPHB1; effect of the variant peptide relative to its reference peptide in the pTyr-Var library screen (enrichment scores)

Screen | Sequence
1.816 | VDGSLYETHPQ [HK1_Y417_K418E]
4.118 | NDFGNYSNQSS [HNRNPA1_Y318_N319S]
3.957 | IKRIDYEFVEM [ADA_Y84_A83D]
-2.368 | RNFGTYTAGLS [RHBDD1_Y264_D262G_YF]
0.304 | ICFSDYVEVAD [PHACTR1_Y525_R521C]
-4.233 | RQQQDYWLKDV [ANPEP_Y600_I603K]

Sequence | Screen
AVISVYDLVVV [PSEN1_Y256_A260V] | -0.1318
EFHRLYEEFTR [PIK3R1_Y467_D464H_YF] | 0.6076
SEPDLYFDPRG [PKP1_Y160_C161Y_YF] | 1.592

The sequences below were run on EPHB2 kinase domain in the same assay as above. Settings: sheet EPHB2; effect of the variant relative to its reference peptide in the pTyr-Var library screen.
Type: biochemical, human

Screen | Sequence
-0.4727 | SQINLYQDVML [ZNF806_Y33_A28S]
4.006 | SVVVLYEPPEV [TP53_Y220_P219L]

Same assay, conditions: sheet EPHB2; effect of variant peptide relative to its reference peptide in the pTyr-Var library screen (enrichment scores)

Screen | Sequence
2.555 | VDGSLYETHPQ [HK1_Y417_K418E]
2.422 | NDFGNYSNQSS [HNRNPA1_Y318_N319S]
2.863 | IKRIDYEFVEM [ADA_Y84_A83D]
-2.902 | RNFGTYTAGLS [RHBDD1_Y264_D262G_YF]
-1.483 | MTFQNYRQALF [FAM20C_Y279_G280R]
1.225 | RVLQLYGCSPS [ASTL_Y279_K277Q]
0.3507 | LTFHMYADPNI [SOS1_Y618_F623I_YF]
1.308 | LVTCSYLLGNS [LMNA_Y646_R644C]
-3.253 | RQQQDYWLKDV [ANPEP_Y600_I603K]

Sequence | Screen
AVISVYDLVVV [PSEN1_Y256_A260V] | -0.3059
PANMVYSTVEI [SLAMF7_Y304_T302M] | 0.9599
EFHRLYEEFTR [PIK3R1_Y467_D464H_YF] | -0.0373
SEPDLYFDPRG [PKP1_Y160_C161Y_YF] | 1.913
VARAVYQAVLS [SMG1_Y549_H546R] | -3.744
